Reference: patent US8470867B2, “Sigma receptor inhibitors” (Laboratorios Del Dr. Esteve, S.A., priority 2004, dated 2013)

Columns and labels:
σ2-receptor = molecular target: T1, σ2-receptor (Mus musculus, UniProt Q8VD00); assay: Sigma-2 receptor binding, [3H]-DTG, brains from σ1 knockout mice; set-up: % Binding σ2: dose or concentration left out as unconfirmed
T1 construct: brains from sigma receptor type I (σ1) knockout mice were homogenized; from tissue; host or cells: brain membranes of σ1 knockout mice
T1 sequence (Q8VD00 1-176): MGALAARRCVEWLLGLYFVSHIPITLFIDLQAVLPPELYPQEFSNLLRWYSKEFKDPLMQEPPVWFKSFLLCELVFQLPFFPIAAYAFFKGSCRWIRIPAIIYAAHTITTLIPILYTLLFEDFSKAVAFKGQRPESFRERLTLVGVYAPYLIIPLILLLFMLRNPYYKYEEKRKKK
Procedure: Binding studies for σ2-receptor were performed as described ([…] et al., 1991) with some modifications. In brief, brains from sigma receptor type I (σ1) knockout mice were homogenized in a volume of 10 mL/g tissue net weight of ice-cold 10 mM Tris-HCl, pH 7.4, containing 320 mM sucrose (Tris-sucrose buffer) with a Potter-Elvehjem homogenizer (10 strokes at 500 r.p.m.) The homogenates were then centrifuged at 1000 g for […] at 4° C., and the supernatants were saved. The pellets were resuspended by vortexing in 2 mL/g ice-cold Tris-sucrose buffer and centrifuged again at 1000 g for 10 min. The combined 1000 g supernatants were centrifuged at 31000 g for 15 min at 4° C. The pellets were resuspended by vortexing in 3 mL/g 10 mM Tris-HCl, pH 7.4, and the suspension was kept at 25° C. for 15 min. Following centrifugation at 31000 g for 15 min, the pellets were resuspended by gentle Potter Elvehjem homogenization to a volume of 1.53 mL/g in 10 mM Tris-HCl pH 7.4. The assay tubes contained 10 μL of [^3H]-DTG (final concentration of 3 nM), 400 μL of the tissue suspension (5.3 mL/g in 50 mM Tris-HCl, pH 8.0) to a final assay volume of 0.5 mL. […] The amount of bound radioactivity was determined by liquid scintillation spectrometry using a Wallac Winspectral 1414 liquid scintillation counter. Protein concentrations were determined by the method of Lowry et al. (1951).

[1] = test system: capsaicin-induced mechanical allodynia; assay: Effect on capsaicin in development of mechanical allodynia (von Frey filaments); type: in vivo; conditions: mice
Procedure: This model uses the von-Frey Filaments and is a model to test the effects or symptoms of neuropathic pain, allodynia etc.
• The injection of 1 μg of capsaicin to experimental animals produces acute pain followed by hyperalgesia/allodynia • The mechanisms involved in capsaicin-induced acute pain and hyperalgesia are relatively well known (mainly activation of peripheral nociceptors and sensitization of spinal cord neurons, respectively)
After habituation mice were according to FIG. 1 first treated with the test-compound (or solvent in controls). Then 1 μg capsaicin (1% DMSO) is injected into their paw resulting in developing pain in the effected paw. The effected paw is then treated with a mechanical stimulus and the latency time before the paw is withdrawn is measured.

psychosis = conditions: cited from earlier work
sigma 1 (σ-1) site = sigma 1 (σ-1) site (Homo sapiens, UniProt Q99720); conditions: cited from earlier work
sigma (σ-2) site = sigma (σ-2) site (Homo sapiens, UniProt Q5BJF2); conditions: cited from earlier work
Sequence of sigma (σ-2) site (Q5BJF2 whole entry): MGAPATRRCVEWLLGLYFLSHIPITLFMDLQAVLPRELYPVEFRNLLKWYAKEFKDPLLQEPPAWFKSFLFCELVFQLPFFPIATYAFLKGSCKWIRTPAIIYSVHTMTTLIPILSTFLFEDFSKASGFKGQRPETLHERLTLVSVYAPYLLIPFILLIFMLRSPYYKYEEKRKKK

Sequence of sigma 1 (σ-1) site (Q99720 whole entry): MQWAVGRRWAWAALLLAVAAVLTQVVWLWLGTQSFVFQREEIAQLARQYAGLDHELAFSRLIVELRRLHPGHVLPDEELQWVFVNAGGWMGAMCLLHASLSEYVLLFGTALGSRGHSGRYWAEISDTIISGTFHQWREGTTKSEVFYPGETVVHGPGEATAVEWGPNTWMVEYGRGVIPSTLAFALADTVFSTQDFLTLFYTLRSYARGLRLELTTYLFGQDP

## Cc1cc(OCCN2CCOCC2)nn1-c1ccc(Cl)c(Cl)c1 [Example 1, 4-{2-(1-(3,4-Dichlorophenyl)-5-methyl-1H pyrazol-3-yloxy)ethyl}morpholine]
σ2-receptor
  % Binding σ2: 3.7%
  Ki: > 10 µM
[1]; 1 μg capsaicin into paw, von Frey filaments
  analgesia in capsaicin-induced neuropathic pain, dose dependency (FIG. 2): dose dependency of the treatment
[1]; 1 μg capsaicin, 0.5 g typically in the range of neuropathic pain/allodynia
  efficacy depending on the force of the von-Frey filaments (FIG. 3): effective specifically in neuropathic pain or mechanical allodynia
other
  melting point: 179 to 182 °C

## C[C@@H]1CN(CCCn2c3ccccc3c3ccccc32)C[C@H](C)N1 [rimcazole]
psychosis
  clinical effects in the treatment of psychosis: clinically shows effects in the treatment of psychosis

## SKF 10047
Sigma 1 (σ-1) site
  affinity for the sigma 1 (σ-1) site: nanomolar affinity
Sigma (σ-2) site
  affinity for the sigma (σ-2) site: micromolar affinity
